Measured values as given in EPA's ToxRefDB 2.

Legend:
dog [1] = details: Subchronic oral toxicity in nonrodent, beagle, Feed, dose end: 13 week, group: systemic, systemic / clinical chemistry / alanine aminotransferase (alt/sgpt) / alanine aminotransferase (alt/sgpt) + systemic / clinical chemistry / …
dog [2] = details: Chronic toxicity; beagle; Oral; Feed; dose end: 53 week; group: systemic; systemic / pathology microscopic / stomach / [other] + systemic / pathology microscopic / stomach / inflammation
mouse [3] = details: Carcinogenicity, cd1, Oral, Feed, dose end: 18 month, group: systemic
rat [4] = details: Combined chronic toxicity/carcinogenicity, wistar, Oral, Feed, dose end: 24 month, group: systemic
rat [5] = details: Multigenerational reproductive toxicity study, sprague dawley, Oral, Feed, dose end: 2 generation
dog [6] = details: Chronic toxicity; beagle; Oral; Feed; dose end: 52 week; group: systemic; systemic / clinical chemistry / creatinine / creatinine + systemic / clinical chemistry / urea nitrogen / urea nitrogen
mouse [7] = details: Combined chronic toxicity/carcinogenicity, other, Oral, Feed, dose end: 95 week, group: systemic
rat [8] = details: Subchronic oral toxicity in rodents, fischer, Feed, dose end: 13 week, group: systemic
dog [9] = details: Subchronic oral toxicity in nonrodent, beagle, Feed, dose end: 228 day, group: systemic, systemic / pathology microscopic / kidney / eosinophilic focus + systemic / pathology microscopic / kidney / pigmentation + systemic / …
dog [10] = details: Subchronic oral toxicity in nonrodent, beagle, Feed, dose end: 184 day, group: systemic, systemic / clinical chemistry / [other] / [other] + systemic / clinical chemistry / aspartate aminotransferase (ast/sgot) / aspartate …
rat [11] = details: Prenatal developmental toxicity study, sprague dawley, Oral, Gavage/Intubation, dose end: 15 GD
rat [12] = details: Subchronic oral toxicity in rodents, sprague dawley, Gavage/Intubation, dose end: 13 week, group: systemic
primate = details: Chronic toxicity, macaque, Oral, Gavage/Intubation, dose end: 52 week, group: systemic
rat [13] = details: Multigenerational reproductive toxicity study, sprague dawley, Oral, Gavage/Intubation, dose end: 2 generation
rat [14] = details: Subchronic dermal toxicity, sprague dawley, Topical, dose end: 90 day, group: systemic
mouse [15] = details: Carcinogenicity, cd1, Dermal, Topical, dose end: 18 month, group: systemic
rat [16] = details: Combined chronic toxicity/carcinogenicity, sprague dawley, Oral, Gavage/Intubation, dose end: 104 week, group: systemic
mouse [17] = details: Combined chronic toxicity/carcinogenicity, b6c3f1, Oral, Water, dose end: 52 week, group: systemic
rat [18] = details: Subchronic oral toxicity in rodents, sprague dawley, Water, dose end: 90 day, group: systemic
[19] = systemic / clinical chemistry / chloride / chloride + systemic / hematology / erythrocyte (rbc) count differential / erythrocyte (rbc) + …
[20] = systemic / clinical chemistry / urea nitrogen / urea + systemic / clinical chemistry / phosphorus / phosphorus
[21] = group: offspring, developmental / developmental malformation / bone / exencephaly + developmental / developmental malformation / eye / ablepharia
[22] = group: offspring, developmental / developmental malformation / bone / exencephaly + developmental / developmental malformation / eye / ablepharia + …
[23] = group: parental, systemic / pathology microscopic / kidney / degeneration
[24] = group: parental, systemic / pathology microscopic / kidney / degeneration + systemic / in life observation / body weight / body weight + systemic / in life …
[25] = group: reproductive, reproductive / offspring survival early / litter size / litter size
[26] = systemic / pathology microscopic / kidney / degeneration + systemic / hematology / platelet / platelet + systemic / in life observation / …
[27] = group: developmental, developmental / developmental malformation / bone / brachycephaly + developmental / developmental malformation / bone / delayed ossification…
[28] = group: maternal, systemic / in life observation / clinical signs / [other] + systemic / in life observation / clinical signs / alopecia + systemic / in life …
[29] = systemic / pathology microscopic / skeletal muscle / atrophy
[30] = systemic / pathology microscopic / skeletal muscle / atrophy + systemic / in life observation / body weight / body weight + systemic / in …
[31] = systemic / in life observation / body weight / body weight + systemic / in life observation / clinical signs / emesis
[32] = group: offspring, developmental / developmental landmark / eye opening / eye opening + developmental / developmental landmark / pinna unfolding / pinna …
[33] = group: parental, systemic / in life observation / clinical signs / salivation
[34] = systemic / in life observation / body weight / body weight + systemic / in life observation / clinical signs / abnormal movements + systemic…
[35] = systemic / pathology microscopic / skeletal muscle / degeneration
[36] = systemic / pathology microscopic / skeletal muscle / degeneration + systemic / in life observation / body weight / body weight + systemic / …
[37] = systemic / organ weight / liver / absolute + systemic / organ weight / liver / relative to body weight + systemic / pathology microscopic / …
[38] = systemic / pathology microscopic / liver / adenoma + systemic / pathology microscopic / liver / hepatocellular carcinoma + systemic / organ …
[39] = systemic / in life observation / water consumption / water consumption + systemic / organ weight / kidney / relative to body weight + …
[40] = systemic / organ weight / spleen / absolute + systemic / pathology microscopic / liver / hypertrophy

COC(=O)c1ccc(CNS(C)(=O)=O)cc1S(=O)(=O)NC(=O)Nc1nc(OC)cc(OC)n1 [Mesosulfuron-methyl]
LEL (dog [1]): 648 mg/kg/day
LOAEL (dog [1]): > 648 mg/kg/day
NEL (dog [1]): 348 mg/kg/day
NOAEL (dog [1]): ≥ 648 mg/kg/day
LEL (dog [2]): 574 mg/kg/day
LOAEL (dog [2]): 574 mg/kg/day
NEL (dog [2]): 155 mg/kg/day
NOAEL (dog [2]): 155 mg/kg/day
LOAEL (mouse [3]; [19]): > 1070 mg/kg/day
NEL (mouse [3]; [19]): 10.6 mg/kg/day
NOAEL (mouse [3]; [19]): ≥ 1070 mg/kg/day
LEL (mouse [3]; systemic / clinical chemistry / chloride / chloride + systemic / hematology / leukocyte (wbc) count differential / leukocyte (wbc)): 103 mg/kg/day
LEL (rat [4]; systemic / clinical chemistry / urea nitrogen / urea): 73.8 mg/kg/day
LOAEL (rat [4]; [20]): > 764 mg/kg/day
NEL (rat [4]; [20]): 7.46 mg/kg/day
NOAEL (rat [4]; [20]): ≥ 764 mg/kg/day

O=C(O)COc1nc(Cl)c(Cl)cc1Cl [Triclopyr]
LEL (rat [5]; [21]): 25 mg/kg/day
LOAEL (rat [5]; [21]): 25 mg/kg/day
NEL (rat [5]; [22]): 2 mg/kg/day
NOAEL (rat [5]; [22]): 2 mg/kg/day
LEL (rat [5]; [23]): 25 mg/kg/day
LOAEL (rat [5]; [23]): 25 mg/kg/day
NEL (rat [5]; [24]): 2 mg/kg/day
NOAEL (rat [5]; [24]): 2 mg/kg/day
LEL (rat [5]; [25]): 250 mg/kg/day
LOAEL (rat [5]; [25]): > 250 mg/kg/day
NEL (rat [5]; [25]): 25 mg/kg/day
NOAEL (rat [5]; [25]): ≥ 250 mg/kg/day
LEL (dog [6]): 2.5 mg/kg/day
LOAEL (dog [6]): 2.5 mg/kg/day
NEL (dog [6]): 0.5 mg/kg/day
NOAEL (dog [6]): 0.5 mg/kg/day
NEL (mouse [7]; systemic / in life observation / body weight / body weight + systemic / urinalysis / protein / protein + systemic / urinalysis / specific …): 2.5 mg/kg/day
NOAEL (mouse [7]; systemic / organ weight / kidney / absolute + systemic / organ weight / pituitary gland / absolute): 12.5 mg/kg/day
LOAEL (mouse [7]; systemic / organ weight / kidney / absolute + systemic / organ weight / pituitary gland / absolute + systemic / in life observation / body …): 62.5 mg/kg/day
LEL (mouse [7]; systemic / urinalysis / protein / protein + systemic / clinical chemistry / urea nitrogen / urea nitrogen + systemic / pathology gross / …): 12.5 mg/kg/day
LOAEL (rat [8]; systemic / pathology microscopic / kidney / degeneration): 20 mg/kg/day
NEL (rat [8]; [26]): 5 mg/kg/day
NOAEL (rat [8]; [26]): 5 mg/kg/day
LEL (rat [8]; systemic / pathology microscopic / kidney / degeneration + systemic / in life observation / body weight / body weight + systemic / in life …): 20 mg/kg/day
LEL (dog [9]): 5 mg/kg/day
LOAEL (dog [9]): 5 mg/kg/day
NEL (dog [9]): < 5 mg/kg/day
NOAEL (dog [9]): < 5 mg/kg/day
LEL (dog [10]): 2.5 mg/kg/day
LOAEL (dog [10]): 2.5 mg/kg/day
NEL (dog [10]): 0.5 mg/kg/day
NOAEL (dog [10]): 0.5 mg/kg/day
LEL (rat [11]; [27]): 200 mg/kg/day
LOAEL (rat [11]; [27]): 200 mg/kg/day
NEL (rat [11]; [27]): 100 mg/kg/day
NOAEL (rat [11]; [27]): 100 mg/kg/day
LEL (rat [11]; [28]): 50 mg/kg/day
LOAEL (rat [11]; [28]): 50 mg/kg/day
NEL (rat [11]; [28]): < 50 mg/kg/day
NOAEL (rat [11]; [28]): < 50 mg/kg/day

[Na+].[O-]n1ccccc1=S [Sodium pyrithione]
LEL (rat [12]; [29]): 2 mg/kg/day
LOAEL (rat [12]; [29]): 2 mg/kg/day
NEL (rat [12]; [30]): 0.5 mg/kg/day
NOAEL (rat [12]; [30]): 0.5 mg/kg/day
LEL (primate; [31]): 5 mg/kg/day
LOAEL (primate; [31]): 25 mg/kg/day
NEL (primate; [31]): < 5 mg/kg/day
NOAEL (primate; systemic / in life observation / body weight / body weight + systemic / in life observation / clinical signs / emesis + systemic / in life …): 5 mg/kg/day
LEL (rat [13]; [32]): 3.5 mg/kg/day
LOAEL (rat [13]; [32]): 3.5 mg/kg/day
NEL (rat [13]; [32]): 1.5 mg/kg/day
NOAEL (rat [13]; [32]): 1.5 mg/kg/day
LEL (rat [13]; [33]): 0.5 mg/kg/day
NEL (rat [13]; [33]): < 0.5 mg/kg/day
LOAEL (rat [13]; group: parental, systemic / pathology microscopic / skeletal muscle / atrophy): 1.5 mg/kg/day
NOAEL (rat [13]; group: parental, systemic / pathology microscopic / skeletal muscle / atrophy + systemic / in life observation / body weight / body weight + systemic / in …): 0.5 mg/kg/day
LOAEL (rat [13]; [25]): 3.5 mg/kg/day
NEL (rat [13]; [25]): 1.5 mg/kg/day
NOAEL (rat [13]; [25]): 1.5 mg/kg/day
LEL (rat [13]; group: reproductive, reproductive / offspring survival early / litter size / litter size + reproductive / reproductive performance / fertility / fertility + …): 3.5 mg/kg/day
LOAEL (rat [14]; [29]): 15 mg/kg/day
NEL (rat [14]; [30]): 5 mg/kg/day
NOAEL (rat [14]; [30]): 5 mg/kg/day
LEL (rat [14]; systemic / pathology microscopic / skeletal muscle / atrophy + systemic / pathology gross / skeletal muscle / reduced size): 15 mg/kg/day
LEL (mouse [15]; [34]): 2 mg/kg/day
NEL (mouse [15]; [34]): < 2 mg/kg/day
LOAEL (mouse [15]; systemic / in life observation / mortality / mortality + systemic / pathology microscopic / liver / hypertrophy): 20 mg/kg/day
NOAEL (mouse [15]; systemic / in life observation / mortality / mortality + systemic / pathology microscopic / lymph node / lymphoma malignant + systemic / in …): 2 mg/kg/day
LEL (rat [16]; [35]): 1.5 mg/kg/day
LOAEL (rat [16]; [35]): 1.5 mg/kg/day
NEL (rat [16]; [36]): 0.5 mg/kg/day
NOAEL (rat [16]; [36]): 0.5 mg/kg/day

O=C([O-])C(Cl)(Cl)Cl.[Na+] [Sodium trichloroacetate]
LOAEL (mouse [17]; [37]): > 267 mg/kg/day
NOAEL (mouse [17]; [37]): ≥ 267 mg/kg/day
LEL (mouse [17]; [38]): 133 mg/kg/day
NEL (mouse [17]; [38]): < 133 mg/kg/day
LOAEL (rat [18]; [39]): > 355 mg/kg/day
NOAEL (rat [18]; [39]): ≥ 355 mg/kg/day
LEL (rat [18]; [40]): 4.1 mg/kg/day
NEL (rat [18]; [40]): < 4.1 mg/kg/day
